Experimental data as given in patent US20250388571A1, “AMP-ACTIVATED PROTEIN KINASE MODULATOR COMPOUNDS AND USES THEREOF” (Biolexis Therapeutics, Inc., priority 2024, published 2025).
“Also recorded” adds a separate entry of the source. Read-outs that look alike come from different tables or passages of the source.

Key:
[1] = system: human skeletal muscle cells (HSKM cells); test: Glucose uptake assay, human skeletal muscle cells; assay type: cell-based
Experimental: FIGS. 1-4 show results for cells treated with differing doses of representative compounds of Structure (I) (i.e., compound I-11 in FIG. 1 and compound I-7 in FIG. 2) as well reference compounds (i.e., PF-06409577 in FIG. 3 and MK-8722 in FIG. 4). […] Cells were starved for 3 hours in high glucose DMEM without FBS, then treated with indicated compounds in DMEM without FBS/glucose for 1 hour, and glucose uptake was detected using an uptake glucose kit (Promega). The bars show (from left to right) concentrations of 100 μM, 33 μM, 11 μM, 3.7 μM, 1.23 μM, 0.41 μM, 0.14 μM, 0.045 μM, 0.015 μM, 0.005 μM, 0 μM, and insulin.
Human skeletal myoblasts were obtained (Thermofisher; BYU) and cultured in DMEM/F12 medium with 10% FBS. For differentiation, 2% horse serum low glucose DMEM medium was employed for 72 hours. Human cardiomyocytes cells (HCM cells; Promocell) were cultured in myocyte growth medium (Promocell). Human preadipocyte HWP-c cells (Promocell) were obtained from upper arm of diabetic II donor. Human preadipocyte HWP-c cells (Promocell) were obtained from abdomen of diabetic II donor. For differentiating human preadipocytes, cells were cultured in preadipocyte growth medium to total confluency stage. The growth medium was replaced with preadipocyte differentiation medium for 72 hours, then changed to PromoCell adipocyte nutrition medium to complete the differentiation process. THLE-2 cells were cultured in BEGM from Lonza/Clonetics Corporation, Walkersville, MD 21793 (BEGM Bullet Kit; CC3170). HepG2, L6 and C2Cl2 cells were cultured in EMEM medium.
After differentiation myoblasts, preadipocyte cells were starved by removing the medium and adding 100 μL DMEM without serum. The medium was then replaced with 100 μL DMEM±1 μM insulin at indicated concentration of representative compounds without serum or glucose. The cells were then incubated for 1 hour at 37° C. in 5% CO2. The cells were then removed from the medium and 50 μL of 0.1 mM 2DG in PBS was added. Cells were incubated for 30 minutes at 25° C. 25 μL of Stop Buffer was added and samples were mixed. 25 μL of Neutralization Buffer was then added and mixed. 100 μL of 2DG6P Detection Reagent was then added and mixed. Samples were then incubated for 1 hour at 25° C. Luminescence was then recorded with 0.3-1 second integration on a luminometer.

[2] = system: AMPK signal pathway in HSKM cells; test: Western blot assay, HSKM cells; assay type: cell-based, human
[3] = PK oral bioavailability experiment, mouse; assay type: in vivo, male Swiss Albino Mouse; details: 1 mg/kg intravenous, 5 mg/kg oral
Experimental: A total of 24 male Swiss albino mouse were allotted for the study, Animals were allotted to 2 groups containing 12 mice/group, on day of dosing all the animals were fasted 3 hours before dosing. The test formulation was administered as a single dose by intravenous and oral route via tail vein and oral gavage needle at a dose of 1 and 5 mg/kg with a dose volume of 5 and 10 mL/kg, respectively.
Approximately 0.1 mL of blood sample from each animal was collected via retro orbital at predetermined time points (3 animals/Timepoint) in pre-labeled Eppendorf tubes containing anticoagulant. After blood collection at 0.5 h and 1 h, after collection of CSF, whole blood was withdrawn, and brain tissue was collected as a terminal sampling. Blood samples were centrifuged at 10000 rpm for 5 min under refrigeration (2-4° C.) within 0.5 h to obtain plasma. The separated plasma samples were collected in pre labeled tubes within 60 min of separation and stored at −20° C. up to 24 h. Post 24 h sample collection, all plasma samples were transferred to deep freezer custodian to store below or at −70° C. until shipment.
Similarly, CSF and Brain were collected at 0.5 h and 1h time point by scarification. Tissues were blotted and dried and then transferred to 15 mL falcon tubes. Initially all tissue samples were stored at −20±3° C. Later all brain tissue samples were homogenized with PBS at 1:4 ratio and the brain homogenate were transferred to deep freezer (−70±10° C.) and stored.
The PK parameters were evaluated using Phoenix WinNonlin® Ent-Version 8.3 by non-compartmental analysis.

[4] = Plasma, liver and adipose tissue concentration in db/db mice, day 36; assay type: in vivo, mice (Mus musculus; db/db C57BL/6); details: post 4 hours dosing on day 36; for concentration at 4 h: male, db/db C57BL/6, mouse, oral
Experimental: A mixture of DMSO (2%), Cremophor EL (2%), Tween 80 (1%), 0.5% methyl cellulose (35%), and water (60%) was used for the formulation. Doses were prepared at concentrations of 30 and 50 mg/kg. Administration was oral, daily for 36 days. Male mice (Mus musculus; db/db C57BL/6) aged 8-9 weeks and weighing less than or equal to 40 grams were used for the study. Groups were assigned 10 mice per group.
G2 and G3 plasma, liver and adipose tissue samples were collected post 4 hours dosing on day 36.

[5] = system: AMPK signal pathway in L6 cells; test: Western blot assay, L6 cells
Experimental: Samples for immunoblotting studies were prepared for electrophoresis by adding in a final concentration of 1× Laemmli loading buffer (supplemented with 5% 2-mercaptoethanol). Samples were then electrophorized by SDS-PAGE (4-15% or 4-20% Criterion TGX Precast gel, Bio-Rad) at a constant voltage within the range of 140V. Proteins were transferred to a nitrocellulose membrane (Bio-Rad) using the Trans-Blot Turbo transfer system (Bio-Rad). Membranes were blocked with 5% BSA in TBST for a minimum of 1 hour at room temperature before incubating with the following primary antibodies: • Phospho-AMPKα (Thr172) (40H9) Rabbit mAb (CST, cat no: 2535S), • AMPKα Antibody (CST, cat no: 2532S) • Phospho-Raptor (Ser792) Antibody (CST, cat no: 2083S) • Raptor (24C12) Rabbit mAb (CST, cat no: 2280S) • Phospho-Acetyl-CoA Carboxylase (Ser79) Antibody (CST, cat no: 3661S) • Acetyl-CoA Carboxylase Antibody (CST, cat no: 3662S) • AMPKα2 Antibody (CST, cat no: 2757S) • AMPKβ1 antibody (CST, cat no: 12063) • AMPKβ2 Antibody (CST, CST, cat no: 4148S) • AMPKγ3 Antibody (CST, cat no: 2550S). […]
After differentiation of cells (e.g., HSKM, C2C12, L6) for 5 days, medium was changed to DHEM without FBS and glucose for starving cells for 2 hours. […] The resultant reaction mixture was then assayed and semi-quantitative histogram analysis of Western Blotting (signal value) was used to determine results.

[6] = system: AMPK signal pathway in human liver cells-HepG2; test: Western blot assay, HepG2 cells
Experimental: Samples for immunoblotting studies were prepared for electrophoresis by adding in a final concentration of 1× Laemmli loading buffer (supplemented with 5% 2-mercaptoethanol). Samples were then electrophorized by SDS-PAGE (4-15% or 4-20% Criterion TGX Precast gel, Bio-Rad) at a constant voltage within the range of 140V. Proteins were transferred to a nitrocellulose membrane (Bio-Rad) using the Trans-Blot Turbo transfer system (Bio-Rad). Membranes were blocked with 5% BSA in TBST for a minimum of 1 hour at room temperature before incubating with the following primary antibodies: • Phospho-AMPKα (Thr172) (40H9) Rabbit mAb (CST, cat no: 2535S), • AMPKα Antibody (CST, cat no: 2532S) • Phospho-Raptor (Ser792) Antibody (CST, cat no: 2083S) • Raptor (24C12) Rabbit mAb (CST, cat no: 2280S) • Phospho-Acetyl-CoA Carboxylase (Ser79) Antibody (CST, cat no: 3661S) • Acetyl-CoA Carboxylase Antibody (CST, cat no: 3662S) • AMPKα2 Antibody (CST, cat no: 2757S) • AMPKβ1 antibody (CST, cat no: 12063) • AMPKβ2 Antibody (CST, CST, cat no: 4148S) • AMPKγ3 Antibody (CST, cat no: 2550S).

[7] = system: HSKM cells; test: CyQUANT Cytotoxicity Assay (G6PD assay), HSKM; details: treated 2 hours
Experimental: The CyQUANT Cytotoxicity Assay (Thermofisher, cat no: V23111) was used to detect damaged and dying cells by means of their release of glucose 6-phosphate dehydrogenase into the surrounding medium. Cells were plated in a 96-well microplate (500-25,000 cells/well in a 50-μL volume). Three sets of triplicate wells were reserved for the following controls: a no-cell control (medium alone), untreated cells, and completely lysed cells. Cells were starved for 2 h and then add the indicated AMPK activators (50 μL) to the experimental wells and incubate for 2 hours, 50 μL of 2× reaction mixture was added to each well. 1 μL of 100× Cell-Lysis buffer was added to the completely lysed control wells only. Cells were incubated at 37° C. for 10-30 minutes. Fluorescence was measured (excitation 530-560 nm, emission 580-600 nm) at 5-minute intervals to determine the optimal time point for the experiment.
To text toxicity, after differentiation of human skeletal muscle cells, HSKM were starved with DMEM medium without FBS/glucose for 2 hours. […] The resultant reaction mixture was then assayed for glucose 6-phosphate dehydrogenase release. An untreated control sample and completely lysed cells were detected for comparison. The fluorescence was measured in a microplate reader (excitation/emission ˜530/590 nm).

With `O=c1[nH]c(-c2c[nH]c3cc(F)c(-c4ccc(C5(O)CCC5)cc4)c(F)c23)no1` [Compound I-11, 3-(4,6-difluoro-5-(4-(1-hydroxycyclobutyl)phenyl)-1H-indol-3-yl)-1,2,4-oxadiazol-5(4H)-one] the “glucose uptake compared with reference compounds, based on RLU values” [1] was “much more glucose uptake compared with reference compounds”, the “dose dependence of glucose uptake (printed: activation of insulin / AMPK activation)” value ([1]; 100 μM to 0.005 μM, 1 hour) was “dose-dependent manner; also recorded: dose dependence” and the glucose uptake ([1]; starved, treated 1 hour) was “induced glucose uptake; also recorded: increased glucose uptake”. The AMPK isoform expression ([2]; HSKM cells) was “increased AMPKα2β1γ3 expression”, the “potency compared with reference compound MK-8722 (p-ACC, p-AMPK)” value ([2]; HSKM cells) was “more potency activity” and the “p-ACC and p-AMPK induction” value ([2]; HSKM cells, 1 hour) was “dosage-dependent manner”. The “p-AMPK, p-ACC, and p-Raptor expression” value ([2]; some high dosage groups, cell type not given) was “could induce”, the clearance [3] was “low clearance” and the elimination [3] was “biphasic elimination”. The systemic exposure [3] was “moderate systemic exposure”, the “Liver (ng/mL), PK concentration, Average” value ([4]; 30 mg/kg) was “BLQ” and the “Liver (ng/mL), PK concentration, Average” value ([4]; 50 mg/kg) was “BLQ”. It also gave a concentration at 4 h ([4]; adipose tissue, 30 mg/kg, read-out: Adipose tissue (ng/mL), PK concentration, Average) of 19.5 ng/mL, a concentration at 4 h ([4]; adipose tissue, 50 mg/kg, read-out: Adipose tissue (ng/mL), PK concentration, Average) of 11 ng/mL and a concentration at 4 h ([4]; plasma, 30 mg/kg, read-out: Plasma (ng/mL), PK concentration, Average) of 244 ng/mL. The concentration at 4 h ([4]; plasma, 50 mg/kg, read-out: Plasma (ng/mL), PK concentration, Average) was 197 ng/mL, the pAMPK/pACC/AMPKα2γ3 expression [5] was “can also induce” and the “p-AMPK/p-ACC and AMPKα2β1β2γ3 activation” value [6] was “dosage-dependent manner”. The “toxicity compared to reference compounds MK-8722 and PF-06409577 (G6PD release)” value [7] was “less toxicity”.
